# According to patent US20190030046A1, “USE OF PURE COMPOUNDS EXTRACTED FROM ANTRODIA CAMPHORATA” (priority 2016, published 2019):
# Key:
# [1] = HFD-induced diabetic mice: absolute tissue weight, body weight, food intake; type: in vivo, C57BL/6J mice; conditions: 4 weeks; for Absolute tissue weight: Visceral fat: EWAT plus RWAT
# From the text: (§1) The difference indicates the daily food intake.
# [2] = system: membrane GLUT4; assay: Western blot of skeletal muscle membrane GLUT4 in HFD mice; conditions: compared to HF, 4 weeks
# Procedure: The HFD mice were subdivided into 6 groups (9 per group) followed by 8-week induction. […] Following four-week treatment and feeding, the food was removed, and the mice were fasted for 12 h and then sacrificed. Tissue samples required were collected from the mice and weighted. Some of the tissue samples were immediately stored at −80° C. and frozen for subsequent target gene analysis. Plasma samples were collected via centrifugation of whole blood at 1600×g for 15 min at 4° C., followed by plasma separation within 30 min.
# We determined PPARα and FAS protein expression levels in liver tissue, PPARγ and FAS protein expression levels in adipose tissue, and membrane GLUT4 expression in skeletal muscle adipose. The total membrane fraction was collected with the buffer and determined as previously described. The membrane GLUT4, p-AMPK, and total AMPK protein content were determined by Western Blotting as previously described.
# [3] = system: PPARγ; assay: Western blot of PPARγ protein in liver and adipose tissue of HFD mice; conditions: compared to HF, 4 weeks
# [4] = system: SREBP-1c; assay: Semiquantitative RT-PCR in liver tissue: SREBP-1c; type: in vivo, C57BL/6J mice; conditions: vs HF, 4 weeks
# Procedure: as §1
# (§2) Total RNA from liver tissue was isolated with a Trizol Reagent (Molecular Research Center, Inc., Cincinnati, Ohio, USA) according to the manufacturer's instructions. The integrity of the extracted total RNA was examined by 2% agarose gel electrophoresis, and the RNA concentration was determined by […] ultraviolet (UV) light absorbency at 260 nm and 280 nm (Spectrophotometer U-2800A, Hitachi). The total RNA (1 μg) was reverse transcribed to cDNA, and 5 μL Moloney murine leukemia virus reverse transcriptase (TEpicentre, Madison, Wis., USA). The PCR was performed in a final 25 μL containing 1 U Blend Taq-Plus (TOYOBO, Japan), 10 μL of the RT cDNA product, 10 μM of each forward (F) and reverse (R) primer, 75 mM Tris-HCL (pH 8.3) containing 1 mg/L Tween 20 (pH 8.3, also known as polyoxyethylene sorbitan monolaurate), 2.5 mM dNTP (deoxy-ribonucleoside triphosphate), and 2 mM MgCl2 (magnesium chloride). The PCR products were analyzed by 2% agarose gel and stained with ethidium bromide.
# [5] = HFD-induced diabetic mice: liver lipids; type: in vivo, C57BL/6J mice; conditions: 4 weeks
# [6] = system: aP2; assay: Semiquantitative RT-PCR in liver tissue: aP2; type: in vivo, C57BL/6J mice; conditions: vs HF, 4 weeks
# Procedure: as §1, §2
compound,measurement,setting,value
"C=C(CC[C@@H](C(=O)O)[C@H]1CC[C@@]2(C)C3=CC[C@H]4C(C)(C)[C@@H](O)CC[C@]4(C)C3=CC[C@]12C)C(C)C [TT, dehydroeburicoic acid]",Absolute tissue weight: Visceral fat,"[1]; HF+TT1, 10 mg/kg/day oral",1142.9 mg
same,Absolute tissue weight: Visceral fat,"[1]; HF+TT2, 20 mg/kg/day oral",1116.2 mg
same,Absolute tissue weight: Visceral fat,"[1]; HF+TT3, 40 mg/kg/day oral",979.3 mg
same,Absolute tissue weight: Brown adipose tissue (BAT),"[1]; HF+TT1, 10 mg/kg/day oral",228.6 mg
same,Absolute tissue weight: Epididymal white adipose tissue (EWAT),"[1]; HF+TT1, 10 mg/kg/day oral",798.9 mg
same,Absolute tissue weight: Liver,"[1]; HF+TT1, 10 mg/kg/day oral",848.3 mg
same,Absolute tissue weight: Mesenteric white adipose tissue (MWAT),"[1]; HF+TT1, 10 mg/kg/day oral",361.3 mg
same,Absolute tissue weight: Retroperitoneal white adipose tissue (RWAT),"[1]; HF+TT1, 10 mg/kg/day oral",343.9 mg
same,Absolute tissue weight: Spleen,"[1]; HF+TT1, 10 mg/kg/day oral",77.7 mg
same,Final body weight,"[1]; HF+TT1, 10 mg/kg/day oral",27.52 g
same,Food intake,"[1]; HF+TT1, 10 mg/kg/day oral",2.21 g/day/mouse
same,Weight gain,"[1]; HF+TT1, 10 mg/kg/day oral",2.24 g
same,Absolute tissue weight: Brown adipose tissue (BAT),"[1]; HF+TT2, 20 mg/kg/day oral",197.3 mg
same,Absolute tissue weight: Epididymal white adipose tissue (EWAT),"[1]; HF+TT2, 20 mg/kg/day oral",784.3 mg
same,Absolute tissue weight: Liver,"[1]; HF+TT2, 20 mg/kg/day oral",841.8 mg
same,Absolute tissue weight: Mesenteric white adipose tissue (MWAT),"[1]; HF+TT2, 20 mg/kg/day oral",340.9 mg
same,Absolute tissue weight: Retroperitoneal white adipose tissue (RWAT),"[1]; HF+TT2, 20 mg/kg/day oral",331.9 mg
same,Absolute tissue weight: Spleen,"[1]; HF+TT2, 20 mg/kg/day oral",81.5 mg
same,Final body weight,"[1]; HF+TT2, 20 mg/kg/day oral",26.47 g
same,Food intake,"[1]; HF+TT2, 20 mg/kg/day oral",2.16 g/day/mouse
same,Weight gain,"[1]; HF+TT2, 20 mg/kg/day oral",0.89 g
same,Absolute tissue weight: Brown adipose tissue (BAT),"[1]; HF+TT3, 40 mg/kg/day oral",198.1 mg
same,Absolute tissue weight: Epididymal white adipose tissue (EWAT),"[1]; HF+TT3, 40 mg/kg/day oral",667.8 mg
same,Absolute tissue weight: Liver,"[1]; HF+TT3, 40 mg/kg/day oral",802.8 mg
same,Absolute tissue weight: Mesenteric white adipose tissue (MWAT),"[1]; HF+TT3, 40 mg/kg/day oral",304.6 mg
same,Absolute tissue weight: Retroperitoneal white adipose tissue (RWAT),"[1]; HF+TT3, 40 mg/kg/day oral",311.4 mg
same,Absolute tissue weight: Spleen,"[1]; HF+TT3, 40 mg/kg/day oral",82.3 mg
same,Final body weight,"[1]; HF+TT3, 40 mg/kg/day oral",26.53 g
same,Food intake,"[1]; HF+TT3, 40 mg/kg/day oral",2.07 g/day/mouse
same,Weight gain,"[1]; HF+TT3, 40 mg/kg/day oral",0.83 g
same,membrane expression level of GLUT4 in skeletal muscle,"[2]; HF+TT1, 10 mg/kg/day oral",significantly increased
same,membrane expression level of GLUT4 in skeletal muscle,"[2]; HF+TT2, 20 mg/kg/day oral",significantly increased
same,membrane expression level of GLUT4 in skeletal muscle,"[2]; HF+TT3, 40 mg/kg/day oral",significantly increased
same,PPARγ protein expression level in adipose tissue,"[3]; HF+TT1, 10 mg/kg/day oral",significantly decreased
same,PPARγ protein expression level in liver,"[3]; HF+TT1, 10 mg/kg/day oral",significantly decreased
same,PPARγ protein expression level in adipose tissue,"[3]; HF+TT2, 20 mg/kg/day oral",significantly decreased
same,PPARγ protein expression level in liver,"[3]; HF+TT2, 20 mg/kg/day oral",significantly decreased
same,PPARγ protein expression level in adipose tissue,"[3]; HF+TT3, 40 mg/kg/day oral",significantly decreased
same,PPARγ protein expression level in liver,"[3]; HF+TT3, 40 mg/kg/day oral",significantly decreased
same,SREBP-1c mRNA expression level in liver,"[4]; HF+TT1, 10 mg/kg/day oral",decreased
same,SREBP-1c mRNA expression level in liver,"[4]; HF+TT2, 20 mg/kg/day oral",decreased
same,SREBP-1c mRNA expression level in liver,"[4]; HF+TT3, 40 mg/kg/day oral",decreased
same,Liver lipids: Total lipid,"[5]; HF+TT1, 10 mg/kg/day oral",64.4 mg/g
same,Liver lipids: Triacylglycerol,"[5]; HF+TT1, 10 mg/kg/day oral",53 µmol/g
same,Liver lipids: Total lipid,"[5]; HF+TT2, 20 mg/kg/day oral",61.7 mg/g
same,Liver lipids: Triacylglycerol,"[5]; HF+TT2, 20 mg/kg/day oral",48 µmol/g
same,Liver lipids: Total lipid,"[5]; HF+TT3, 40 mg/kg/day oral",57.9 mg/g
same,Liver lipids: Triacylglycerol,"[5]; HF+TT3, 40 mg/kg/day oral",47.1 µmol/g
same,aP2 mRNA expression level in liver,"[6]; HF+TT1, 10 mg/kg/day oral",decreased
same,aP2 mRNA expression level in liver,"[6]; HF+TT2, 20 mg/kg/day oral",decreased
same,aP2 mRNA expression level in liver,"[6]; HF+TT3, 40 mg/kg/day oral",decreased
